Data as given in patent US5229419A, “Chemotherapeutically active acetogenins” (Purdue Research Foundation, priority 1992, dated 1993).
In brackets after ≈: the same amount, converted by molar mass.

Experiments:
RPMI-7951 = test: NCI in vitro cytotoxicity, melanoma; type: cell-based; conditions: Homo sapiens
SK-MEL5 = test: NCI in vitro cytotoxicity, melanoma; type: cell-based; conditions: Homo sapiens, SK-MEL-5
CCRF-CEM = test: NCI in vitro cytotoxicity, leukemia; type: cell-based; conditions: Homo sapiens
P388/ADR = test: NCI in vitro cytotoxicity, leukemia; type: cell-based; conditions: Mus musculus
K562 = test: NCI in vitro cytotoxicity, leukemia; type: cell-based; conditions: Homo sapiens
A2780 = test: NCI in vitro cytotoxicity, ovarian cancer; type: cell-based; conditions: Homo sapiens
LOX = test: NCI in vitro cytotoxicity, melanoma; type: cell-based; conditions: Homo sapiens
Text: Isolated pure compounds were sent to the National Institute of Health, National Cancer Institute, Bethesda, Md., for testing in human cancer cell line panels including leukemia, non-small cell lung cancer, small cell lung cancer, CNS cancer, melanoma, ovarian cancer and renal cancer.
To test further the selective specificity of antitumor activities, bullatacin was sent to the NIH, NCI at Bethesda, Md., for their human tumor cell line panel tests including leukemia, non-small cell lung cancer, small cell lung cancer, colon cancer, breast cancer, CNS cancer melanoma, ovarian cancer, and renal cancer.

[1] = tested on: brine shrimp (Artemia salina Leach); test: whole plant or invertebrate; type: in vivo; conditions: 24 hrs, read-out: BST LC50
Procedure: The extracts, fractions, and isolated compounds were routinely evaluated for lethality to brine shrimp larvae (BST). The LC50 of brine shrimp (Artemia salina Leach) was determined by substantially the same method described by Meyer et al. [Planta Med., 45: 31-34 (1982)]. The test sample was dissolved in solvent and added to 2-dram vials in an amount to provide 1000, 100, 10, 1, etc. p.p.m. of material in the final brine preparation, assuming complete miscibility in the brine. The vials were dried in vacuo, and artificial sea water, prepared from a commercial salt mixture, was added. Ten brine shrimp larva (nauplii), 48-72 hrs. old, were introduced to the vial, and the volume was made up to 5 ml. with the sea water. After 24 hrs., the percent mortality was computed. Subsequently, LC50 values and 95% confidence limits were calculated by a Finney probit analysis to permit comparison of potencies of extracts and fractions.
(§1) Anticancer activity is a potential use even for the crude extract. The bioassay results for the lethality of brine shrimp (BST), the inhibition of crown gall tumors on potato discs (PD), the reversal in morphology of db-cAMP induced AC glioma cells from that of mature, differentiated astrocytes to that of immature AC glioma cells (mouse brain cells) (9ASK), the dose that inhibits cell growth to one-half that of untreated poorly differentiated human epidermic carcinoma (9KB), the dose that inhibits cell growth to one-half that of a methylcholanthrene-induced lymphoid neoplasm in a DBA/2 mouse (9PS), and the percent displacement in a protein kinase C test for initial extract fractions are shown in Table 1. Obviously, the bioactivity is concentrated in F005.

SK-MES-1 = test: NCI in vitro cytotoxicity, non-small cell lung cancer; type: cell-based; conditions: Homo sapiens
SN12-K1 = test: NCI in vitro cytotoxicity, renal cancer; type: cell-based; conditions: Homo sapiens, SN12K1
H460 = test: NCI in vitro cytotoxicity, non-small cell lung cancer; type: cell-based; conditions: Homo sapiens
[2] = tested on: human tumor cell line panel; test: NCI human tumor cell line panel, overall; type: cell-based; conditions: Table 6 summary
SW620 = test: NCI in vitro cytotoxicity, colon cancer; type: cell-based; conditions: Homo sapiens, SW-620
[3] = tested on: corn root worm (CRW) Diabrotics undecimcuntata howardii; type: in vivo; conditions: at 24 ppm
Procedure: (§2) Pesticidal bioassays were conducted at Eli Lilly Laboratories (Greenfield, Ind.) following standard procedures with eight indicator organisms: mosquito larvae (ML) Aedes aegypti (in the media), blowfly larvae (BFL) (1% in the diet), corn root worm (CRW) Diabrotics undecimcuntata howardii (in soil), two-spotted spider mite (2SSM) Tetranychus urticae (on foliage), southern army worm (SAW) Spodoptera eridania (on foliage), melon aphid (MA) (5000 ppm on foliage), cotton aphid (CA) Aphis gossypii, (on foliage) and Haemonchus contortus (HC) (a nematode, 0.1% in the media).
(§3) Pesticidal bioassays on initial fractions were conducted at Eli Lilly Laboratories (Greenfield, Ind.) following standard procedures with seven indicator organisms: mosquito larvae (ML), blow fly larvae (BFL), corn root worm (CRW), two-spotted spider mite (2SSM), southern army worm (SAW), melon aphid (MA), and Haemonchus contortus (HC).

[4] = tested on: two-spotted spider mite (2SSM) Tetranychus urticae; type: in vivo; conditions: at 10 ppm
Procedure: as §2, §3

[5] = tested on: 9KB (human nasopharyngeal carcinoma); test: 9KB cytotoxicity; type: cell-based
Procedure: Occasional checks in the potato disc (PD) assay assured us that antitumor activity was present [Ferrigni et al., J. Nat. Prod., 45; 679-686 (1982)]. Cytotoxicity tests were performed at the Purdue Cell Culture Laboratory, Purdue Cancer Center, using standard protocols for 9KB (human nasopharyngeal carcinoma) and 9PS (a chemically-induced murine lymphocytic leukemia) [Suffness et al., Methods In Cancer Research. Vol. 16: 73 (1979), V. T. DeVita, Jr. and H. Busch eds., Academic Press, New York], 9ASK (astrocytoma reversal) [Lgarashi et al., Cell Struct. and Funct., 3: 107 (1978)], A-549 (human lung carcinoma) [Giard et al., J. Nat. Cancer Inst., 51: 1417-1423 (1973)], and HT-29 (human colon adenocarcinoma) [Fogh J. (ed.), Human Tumor Cells, In Vitro, Plenum Press, New York: 115-159 (1975)].
as §1

H522 = test: NCI in vitro cytotoxicity, non-small cell lung cancer; type: cell-based; conditions: Homo sapiens
H69 = test: NCI in vitro cytotoxicity, small cell lung cancer; type: cell-based; conditions: Homo sapiens
H146 = test: NCI in vitro cytotoxicity, small cell lung cancer; type: cell-based; conditions: Homo sapiens

`CCCCCCCCCCC(O)C1CCC(C2CCC(C(O)CCCCCCCCCCC(O)CC3=CC(C)OC3=O)O2)O1` (centres unmarked) [Bullatacin] was tested, and the IC50 (RPMI-7951) was 2730 ng/mL (≈ 4380 nM), the IC90 (RPMI-7951) was 7710 ng/mL (≈ 12400 nM) and the IC50 (SK-MEL5) was greater than 0.926 ng/mL. For the same molecule, the IC90 (SK-MEL5) was 5220 ng/mL (≈ 8380 nM), the IC50 (CCRF-CEM) was 0.0894 ng/mL (≈ 0.144 nM) and the IC90 (CCRF-CEM) was 69.4 ng/mL (≈ 111 nM). For the same molecule, the IC50 (P388/ADR) was less than 0.926 ng/mL, the IC90 (P388/ADR) was 2560 ng/mL (≈ 4110 nM) and the IC50 (K562) was less than 0.926 ng/mL. It also gave an IC90 (K562) of 4500 ng/mL (≈ 7220 nM), an IC50 (A2780) of 0.0377 ng/mL (≈ 0.0605 nM) and an IC90 (A2780) of 0.65 ng/mL (≈ 1.04 nM). For the same molecule, the IC50 (LOX) was less than 0.926 ng/mL, the IC90 (LOX) was 3760 ng/mL (≈ 6040 nM) and the LC50 [1] was 1.59 ng/mL (≈ 2.55 nM). For the same molecule, the IC50 (SK-MES-1) was greater than 92.4 ng/mL, the IC90 (SK-MES-1) was greater than 92.4 ng/mL and the IC50 (SN12-K1) was 0.0224 ng/mL (≈ 0.036 nM). It also gave an IC90 (SN12-K1) of 0.287 ng/mL (≈ 0.461 nM), an IC50 (H460) of 0.0287 ng/mL (≈ 0.0461 nM) and an IC90 (H460) of 0.185 ng/mL (≈ 0.297 nM). For the same molecule, the “tumor types most sensitive in panel” value [2] was “best active for certain CNS cancers, non-small cell lung cancers, leukemias, and ovarian cancers”, the IC50 (SW620) was 5.64 ng/mL (≈ 9.05 nM) and the IC90 (SW620) was 5660 ng/mL (≈ 9090 nM). The “toxicity to southern corn rootworm” value [3] was “significantly toxic”, the “toxicity to two-spotted spider mites” value [4] was “significantly toxic” and the “9KB ED50” value [5] was 6.188e-11 ng/mL. It also gave an IC50 (H522) of 2460 ng/mL (≈ 3950 nM), an IC90 (H522) greater than 9240 ng/mL and an IC50 (H69) of 2440 ng/mL (≈ 3920 nM). It also gave an IC90 (H69) of 7520 ng/mL (≈ 12100 nM) and an IC90 (H146) greater than 9260 ng/mL.
